One data set deals with RCC-JW. Description: apilimod 5 day assay in clear cell RCC line RCC-JW. The class given is cell-based. The note with it: 120 h, read-out: EC50 (nM) (avg, n = 2).
A further data set relates to A498. Description: apilimod 5 day assay in clear cell RCC line A498. It counts as cell-based. To be noted: Homo sapiens, 120 h, VHL mutant, read-out: EC50 (nM) (avg, n = 2).
The next data set has as its system 786-0. Description: apilimod 5 day assay in clear cell RCC line 786-0. The class given is cell-based. The note with it: Homo sapiens, 120 h, 786-0 clear cell RCC line, VHL mutant, read-out: EC50 (nM) (avg, n = 2).
In another data set the test system is SU-DHL-6 and SU-DHL-10. Description: LysoTracker staining of the acidified compartment. It counts as cell-based. The note with it: 200 nM apilimod, 24 and 48 hrs, compared to DMSO. The procedure:
FIG. 3: LysoTracker staining in SU-DHL-6 and SU-DHL-10 for 24 and 48 hrs after treatment with 200 nM (blue) apilimod compared to DMSO treated control (red).
(§1) To further understand apilimod's cellular mechanism of action, we performed a global gene expression analysis of the changes occurring after apilimod treatment of two non-Hodgkins B cell lymphoma (B-NHL) tumor cell lines, SU-DHL-10 and WSU-DLCL2. […] We next performed a gene ontology analysis. […] We next used LysoTracker staining to examine the acidified compartment of the cells.

The next data set concerns 769-P. Description: apilimod 5 day assay in clear cell RCC line 769-P. To be noted: Homo sapiens, 120 h, 769-P clear cell RCC line, VHL mutant, read-out: EC50 (nM) (avg, n = 2). The class given is cell-based.
In another data set the test system is Caki-2. Description: apilimod 5 day assay in clear cell RCC line Caki-2. The class given is cell-based. The note with it: Homo sapiens, 120 h, Caki-2 clear cell RCC line, VHL mutant, read-out: EC50 (nM) (avg, n = 2).
The next data set relates to RCC-ER. Description: apilimod 5 day assay in clear cell RCC line RCC-ER. The class given is cell-based. The note with it: 120 h, VHL mutant, read-out: EC50 (nM) (avg, n = 2). The source says: FIG. 7B: example dose response of renal cell line RCC-ER and normal colon cell line CCD841CoN to apilimod in a 5 day assay.
In the next data set the test system is ACHN. As to the kind of experiment: apilimod 5 day assay in clear cell RCC line ACHN. The note with it: Homo sapiens, 120 h, VHL WT, read-out: EC50 (nM) (avg, n = 2). It counts as cell-based.
Another data set relates to KMRC-3. Description: apilimod 5 day assay in clear cell RCC line KMRC-3. The class given is cell-based. To be noted: 120 h, KMRC-3 clear cell RCC line, VHL mutant, read-out: EC50 (nM) (avg, n = 2).
A further data set relates to TSC null cells. To be noted: mTOR pathway constitutively active; previously shown; cited from earlier work.
The next data set deals with RCC-MF. Description: apilimod 5 day assay in clear cell RCC line RCC-MF. To be noted: 120 h, read-out: EC50 (nM) (avg, n = 2). It counts as cell-based.
A further data set deals with TFEB. Description: TFEB phosphorylation status and subcellular localization by immunoblotting. The note with it: SU-DHL-6 cells, apilimod 63 nM, 2 hr. It counts as cell-based. On the procedure: FIG. 4: nuclear and cytoplasmic levels of TFEB protein assayed by immunoblotting in SU-DHL-6 cells treated with apilimod (63 nM) for 2 hr.
TFEB is a master regulator of lysosomal gene expression and is activated by dephosphorylation followed by nuclear translocation (Roczniak-Ferguson et al., 2012; Settembre et al., 2012). Accordingly, we next looked at TFEB phosphorylation status and subcellular localization following apilimod treatment.
(In western blotting, separated proteins are transferred to a membrane and probed.)

The subject of a further data set is Caki-1. Description: apilimod 5 day assay in clear cell RCC line Caki-1. The class given is cell-based. The note with it: Homo sapiens, 120 h, Caki-1 clear cell RCC line, VHL WT, read-out: EC50 (nM) (avg, n = 2).
In the next data set the test system is A-704. As to the kind of experiment: apilimod 5 day assay in clear cell RCC line A-704. The class given is cell-based. The note with it: Homo sapiens, A704, 120 h, A-704 clear cell RCC line, VHL mutant, read-out: EC50 (nM) (avg, n = 2).
Another data set relates to KMRC-1. Description: apilimod 5 day assay in clear cell RCC line KMRC-1. To be noted: 120 h, KMRC-1 clear cell RCC line, VHL mutant, read-out: EC50 (nM) (avg, n = 2). The class given is cell-based.
Another data set deals with RCC-JF. As to the kind of experiment: apilimod 5 day assay in clear cell RCC line RCC-JF. It counts as cell-based. To be noted: 120 h, VHL mutant, read-out: EC50 (nM) (avg, n = 2).
The next data set concerns RCC-FG2. Description: apilimod 5 day assay in clear cell RCC line RCC-FG2. It counts as cell-based. To be noted: 120 h, VHL mutant, read-out: EC50 (nM) (avg, n = 2).
Data set [1] relates to synovial IL-12 and IL-23 expression. The note with it: patients with rheumatoid arthritis; Krauz et al. 2012; cited from earlier work.
The test system of data set [2] is SU-DHL-10 and WSU-DLCL2 B-NHL lines. Description: global gene expression and gene ontology analysis. It counts as cell-based. To be noted: SU-DHL-10 and WSU-DLCL2 after apilimod treatment.
Excerpt: FIG. 1: heatmap representation of gene expression changes in SU-DHL-10 and WSU-DLCL2 B-NHL lines upon apilimod treatment.
as §1

The test system of data set [3] is CA46 (TFEB-deficient B-NHL). Description: apilimod dose response in CA46 pools over-expressing GFP control or TFEB. The note with it: CA46 pools over-expressing TFEB vs GFP control, 10-point dose response, 72 hrs. It counts as cell-based. On the procedure: FIG. 6: stable CA46 (TFEB-deficient B-NHL) pools over-expressing either GFP control or TFEB were treated with 10-point apilimod dose response for 72 hrs.
To further explore the role of TFEB in the cellular response to apilimod, the expression levels of TFEB across different cancer cell lines from the Cancer Cell Line Encyclopedia (CCLE) database (Barretina et al., 2012) were extracted and examined to determine whether there was a correlation between TFEB expression and the sensitivity of the cell line to apilimod. […] To test whether the increased TFEB expression contributes to the apilimod sensitivity observed in B-NHL, we overexpressed TFEB in the TFEB-deficient B-NHL cell line CA46.

The test system of data set [4] is clear cell RCC cell lines (n=5). As to the kind of experiment: anti-proliferative activity versus standard of care drugs, 5 day assays. The class given is cell-based. The note with it: versus axitinib, sorafenib, pazopanib, sunitinib and rapamycin. The source says: FIG. 8: anti-proliferative activity of apilimod versus standard of care drugs in clear cell RCC cell lines (n=5) in 5 day assays. *Values denote the geometric mean.

In data set [5] the test system is RCC having a VHL mutation. As to the kind of experiment: apilimod cytotoxicity in RCC lines by VHL status. The note with it: clear cell RCC lines of Table 2, 5 day assay. The class given is cell-based.
For data set [6] the following is noted: active Crohn's disease; Sands et al. 2010; cited from earlier work.

Consider one molecule from patent US20190015421A1, “Biomarkers for Treating Cancer with Apilimod” (LAM Therapeutics, Inc., priority 2016, published 2019).

In general, EC50 refers to the concentration that produces a half-maximal response.

Turning to `Cc1cccc(/C=N/Nc2cc(N3CCOCC3)nc(OCCc3ccccn3)n2)c1` [apilimod], the EC50 came out at 27 nM in the data set with RCC-JW; 84000 nM with A498; 71 nM in the data set on 786-0; 44 nM with 769-P; 3360 nM with Caki-2; 9 nM in the data set on RCC-ER. The EC50 with ACHN turned out to be 9040 nM; in the data set on KMRC-3, 39 nM; in the data set on RCC-MF, 8 nM; with Caki-1 it was 2280 nM; in the data set on A-704 it was 11 nM; with KMRC-1 it was 4 nM. The results for the half-maximal effective concentration (EC50) in the data set on RCC-JF and in the data set on RCC-FG2 were 60 nM and 32 nM, respectively. The “acidified compartment (LysoTracker staining)” value in the data set on SU-DHL-6 and SU-DHL-10 is reported as “expansion of the acidified compartment”. Further, the “cytotoxicity in TSC null cells” value in the data set on TSC null cells is reported as “highly cytotoxic”. For the same molecule, the “TFEB dephosphorylation and nuclear translocation” value in the data set with TFEB is “induces TFEB dephosphorylation and nuclear translocation”. For the same molecule, in data set [1], the “effect on synovial IL-12 and IL-23 expression” value was “failed to alter synovial IL-12 and IL-23 expression”. In data set [2], the “gene ontology of genes induced by apilimod” value was “clear enrichment of lysosomal genes”. In addition, the “enhancement of apilimod sensitivity by TFEB over-expression” value in data set [3] is on record as “greater than 50 fold”. For the same molecule, in [4], the “activity against clear cell RCCs relative to standard of care treatments” value is given as “superior activity”. Moreover, the “cytotoxicity by VHL status” value in data set [5] is reported as “preferentially cytotoxic in RCC having a VHL mutation”. Moreover, in data set [6], the efficacy over placebo result was “did not demonstrate efficacy over placebo”. For the same molecule, the tolerability result in data set [6] was “well tolerated”.
